# Source: patent US20060069132A1, “Azolecarboxamide herbicides” (priority 2004, published 2006)
# Tests used:
# [1] = tested on: barnyardgrass; test: Test B pre-/postemergence herbicide test; format: in vivo, Echinochloa crus-galli; settings: for Barnyardgrass plant response rating (0 to 100 scale) / Plant response rating, Barnyardgrass: 0 = no effect, 100 = complete control, preemergence; for Plant response rating, Barnyardgrass / Barnyardgrass plant response rating: visual rating; for Barnyardgrass plant response rating: postemergence, scale 0 (no effect) to 100 (complete control)
# Procedure, shortened: (§1)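 Flooded paddy rice and barnyardgrass were treated at the 2-leaf stage; upland plantings received compound either on sown seed or on 1- to 4-leaf seedlings. All were kept 13–15 days in a greenhouse and scored visually, 0–100, relative to untreated plants.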
# [2] = tested on: Surinam grass; test: Test B pre-/postemergence herbicide test; format: in vivo, Urochloa decumbens; settings: for Surinam Grass plant response rating (0 to 100 scale) / Plant response rating, Surinam Grass: 0 = no effect, 100 = complete control, preemergence; for Surinam Grass plant response rating: postemergence
# Procedure, shortened: (§2)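 Seeds were planted and treated preemergence with compounds formulated in a non-phytotoxic solvent mixture containing surfactant, while plants at the 1- to 4-leaf stage (2 to 18 cm) received postemergence sprays. Flooded paddy plants were grown to the 2-leaf stage. After 13 to 15 days in a greenhouse, injury was visually rated 0–100 against untreated controls.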
# [3] = tested on: cocklebur; test: Test B pre-/postemergence herbicide test; format: in vivo, Xanthium strumarium; settings: for Cocklebur plant response rating (0 to 100 scale) / Plant response rating, Cocklebur: 0 = no effect, 100 = complete control, preemergence; for Plant response rating, Cocklebur / Cocklebur plant response rating: visual rating; for Cocklebur plant response rating: postemergence, scale 0 (no effect) to 100 (complete control)
# Procedure, shortened: as §1
# [4] = tested on: corn; test: Test B pre-/postemergence herbicide test; format: in vivo, Zea mays; settings: for Corn plant response rating (0 to 100 scale) / Plant response rating, Corn: 0 = no effect, 100 = complete control, preemergence; for Corn plant response rating: postemergence
# Procedure, shortened: as §2
# [5] = tested on: large crabgrass; test: Test B pre-/postemergence herbicide test; format: in vivo, Digitaria sanguinalis; settings: for Crabgrass, Large plant response rating (0 to 100 scale) / Plant response rating, Crabgrass, Large: 0 = no effect, 100 = complete control, preemergence; for Crabgrass, Large plant response rating: postemergence
# Procedure, shortened: as §2
# [6] = tested on: giant foxtail; test: Test B pre-/postemergence herbicide test; format: in vivo, Setaria faberi; settings: for Foxtail, Giant plant response rating (0 to 100 scale) / Plant response rating, Foxtail, Giant: 0 = no effect, 100 = complete control, preemergence; for Foxtail, Giant plant response rating: postemergence
# Procedure, shortened: as §2
# [7] = tested on: lambsquarters; test: Test B pre-/postemergence herbicide test; format: in vivo, Chenopodium album; settings: for Lambsquarters plant response rating (0 to 100 scale) / Plant response rating, Lambsquarters: 0 = no effect, 100 = complete control, preemergence; for Lambsquarters plant response rating: postemergence
# Procedure, shortened: as §2
# [8] = tested on: morningglory; test: Test B pre-/postemergence herbicide test; format: in vivo, Ipomoea coccinea; settings: for Morningglory plant response rating (0 to 100 scale) / Plant response rating, Morningglory: 0 = no effect, 100 = complete control, preemergence; for Morningglory plant response rating: postemergence
# Procedure, shortened: as §1
# [9] = tested on: pigweed; test: Test B pre-/postemergence herbicide test; format: in vivo, Amaranthus retroflexus; settings: for Pigweed plant response rating (0 to 100 scale) / Plant response rating, Pigweed: 0 = no effect, 100 = complete control, preemergence; for Pigweed plant response rating: postemergence
# Procedure, shortened: as §2
# [10] = tested on: rice; test: Test B pre-/postemergence herbicide test; format: in vivo, Oryza sativa; settings: 0 = no effect, 100 = complete control, preemergence; for Rice plant response rating (0 to 100 scale): 125 g ai/ha; for Plant response rating, Rice: 500 g ai/ha, visual rating
# Procedure, shortened: as §2
# [11] = tested on: velvetleaf; test: Test B pre-/postemergence herbicide test; format: in vivo, Abutilon theophrasti; settings: for Velvetleaf plant response rating: postemergence
# Procedure, shortened: as §2
# [12] = tested on: blackgrass; test: Test B postemergence herbicide test; format: in vivo, Alopecurus myosuroides; settings: postemergence, visual rating, scale 0 (no effect) to 100 (complete control)
# Procedure, shortened: (§3)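 After treating 2-leaf paddy plants or 2–18 cm postemergence plants (1 to 4 leaves) with formulated chemical, researchers kept them in a greenhouse for 13–15 days. Effects were judged visually versus controls: 0 indicates none, 100 total control.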
# [13] = tested on: wheat; test: Test B postemergence herbicide test; format: in vivo, Triticum aestivum; design: key to Wheat plant response rating: 0 = no effect, 100 = complete control; settings: postemergence
# Procedure, shortened: (§4)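 Visual ratings, 0 (no effect) to 100 (complete control), made versus controls after 13–15 d greenhouse. Paddy plants treated at 2-leaf stage; postemergence plants at 1- to 4-leaf stage, 2–18 cm tall.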
# [14] = tested on: wild oat; test: Test B postemergence herbicide test; format: in vivo, Avena fatua; settings: postemergence
# Procedure, shortened: as §4
# [15] = tested on: rice; test: Test B flooded paddy test; format: in vivo, Oryza sativa; settings: 1000 g ai/ha, scale 0 to 100 (0 no effect, 100 complete control)
# Procedure, shortened: as §4
# [16] = tested on: small flower umbrella sedge; test: Test B flooded paddy test; format: in vivo, Cyperus difformis; settings: 1000 g ai/ha, scale 0 to 100 (0 no effect, 100 complete control)
# Procedure, shortened: as §3
# [17] = tested on: ducksalad; test: Test B flooded paddy test; format: in vivo, Heteranthera limosa; settings: 1000 g ai/ha, scale 0 to 100 (0 no effect, 100 complete control)
# Procedure, shortened: as §3
# [18] = tested on: barnyardgrass; test: Test B flooded paddy test; format: in vivo, Echinochloa crus-galli; settings: 1000 g ai/ha, scale 0 to 100 (0 no effect, 100 complete control)
# Procedure, shortened: as §3
# [19] = 125 g ai/ha, visual rating, scale 0 (no effect) to 100 (complete control)
# [20] = 500 g ai/ha, visual rating, scale 0 (no effect) to 100 (complete control)
# [21] = 125 g ai/ha, 0 = no effect, 100 = complete control, preemergence
# [22] = 500 g ai/ha, scale 0 to 100, 0 is no effect, 100 is complete control
structure (smiles),measurement,setting,value
C=CCNC(=O)c1ccc(F)c(NC(=O)c2sc(CC)nc2C(C)(C)C)c1 [Compound 237],Barnyardgrass plant response rating (0 to 100 scale),[1]; 125 g ai/ha,20
same,"Plant response rating, Barnyardgrass",[1]; 500 g ai/ha,50
same,Surinam Grass plant response rating (0 to 100 scale),[2]; 125 g ai/ha,10
same,"Plant response rating, Surinam Grass","[2]; 500 g ai/ha, visual rating",30
same,Surinam Grass plant response rating,[2]; [19],20
same,Surinam Grass plant response rating,[2]; [20],20
same,Cocklebur plant response rating (0 to 100 scale),[3]; 125 g ai/ha,0
same,"Plant response rating, Cocklebur",[3]; 500 g ai/ha,0
same,Cocklebur plant response rating,[3]; 125 g ai/ha,10
same,Cocklebur plant response rating,[3]; 500 g ai/ha,40
same,Corn plant response rating (0 to 100 scale),[4]; 125 g ai/ha,0
same,"Plant response rating, Corn","[4]; 500 g ai/ha, visual rating",20
same,Corn plant response rating,[4]; [19],20
same,Corn plant response rating,[4]; [20],40
same,"Crabgrass, Large plant response rating (0 to 100 scale)",[5]; 125 g ai/ha,30
same,"Plant response rating, Crabgrass, Large","[5]; 500 g ai/ha, visual rating",90
same,"Crabgrass, Large plant response rating",[5]; [19],10
same,"Crabgrass, Large plant response rating",[5]; [20],20
same,"Foxtail, Giant plant response rating (0 to 100 scale)",[6]; 125 g ai/ha,0
same,"Plant response rating, Foxtail, Giant","[6]; 500 g ai/ha, visual rating",40
same,"Foxtail, Giant plant response rating",[6]; [19],10
same,"Foxtail, Giant plant response rating",[6]; [20],20
same,Lambsquarters plant response rating (0 to 100 scale),[7]; 125 g ai/ha,70
same,"Plant response rating, Lambsquarters","[7]; 500 g ai/ha, visual rating",90
same,Lambsquarters plant response rating,[7]; [19],60
same,Lambsquarters plant response rating,[7]; [20],70
same,Morningglory plant response rating (0 to 100 scale),[8]; 125 g ai/ha,0
same,"Plant response rating, Morningglory","[8]; 500 g ai/ha, visual rating",20
same,Morningglory plant response rating,[8]; [19],20
same,Morningglory plant response rating,[8]; [20],60
same,Pigweed plant response rating (0 to 100 scale),[9]; 125 g ai/ha,20
same,"Plant response rating, Pigweed","[9]; 500 g ai/ha, visual rating",70
same,Pigweed plant response rating,[9]; [19],30
same,Pigweed plant response rating,[9]; [20],60
same,Rice plant response rating (0 to 100 scale),[10],0
same,"Plant response rating, Rice",[10],30
same,Velvetleaf plant response rating (0 to 100 scale),[11]; [21],30
same,"Plant response rating, Velvetleaf","[11]; 500 g ai/ha, visual rating, 0 = no effect, 100 = complete control, preemergence",60
same,Velvetleaf plant response rating,[11]; [19],30
same,Velvetleaf plant response rating,[11]; [20],50
same,Blackgrass plant response rating,[12]; 125 g ai/ha,0
same,Blackgrass plant response rating,[12]; 500 g ai/ha,10
same,Wheat plant response rating,[13]; [19],10
same,Wheat plant response rating,[13]; [20],20
same,"Oat, Wild plant response rating",[14]; [19],0
same,"Oat, Wild plant response rating",[14]; [20],20
same,Rice plant response rating,[15],50
same,"Sedge, Umbrella plant response rating",[16],40
same,Ducksalad plant response rating,[17],80
same,Barnyardgrass plant response rating,[18],60
CCc1nn(C(C)(C)C)cc1C(=O)Nc1ccc(F)c(C(=O)N(CC)CC)c1 [Compound 240],Barnyardgrass plant response rating (0 to 100 scale),[1]; 125 g ai/ha,0
same,"Plant response rating, Barnyardgrass",[1]; 500 g ai/ha,70
same,Barnyardgrass plant response rating,[1]; 125 g ai/ha,0
same,Barnyardgrass plant response rating,[1]; 500 g ai/ha,0
same,Surinam Grass plant response rating (0 to 100 scale),[2]; 125 g ai/ha,0
same,"Plant response rating, Surinam Grass","[2]; 500 g ai/ha, visual rating",20
same,Surinam Grass plant response rating,[2]; [19],0
same,Surinam Grass plant response rating,[2]; [22],20
same,Cocklebur plant response rating (0 to 100 scale),[3]; 125 g ai/ha,0
same,"Plant response rating, Cocklebur",[3]; 500 g ai/ha,0
same,Cocklebur plant response rating,[3]; 125 g ai/ha,0
same,Cocklebur plant response rating,[3]; 500 g ai/ha,20
same,Corn plant response rating (0 to 100 scale),[4]; 125 g ai/ha,0
same,"Plant response rating, Corn","[4]; 500 g ai/ha, visual rating",0
same,Corn plant response rating,[4]; [19],0
same,Corn plant response rating,[4]; [22],10
same,"Crabgrass, Large plant response rating (0 to 100 scale)",[5]; 125 g ai/ha,20
same,"Plant response rating, Crabgrass, Large","[5]; 500 g ai/ha, visual rating",100
same,"Crabgrass, Large plant response rating",[5]; [19],0
same,"Crabgrass, Large plant response rating",[5]; [22],20
same,"Foxtail, Giant plant response rating (0 to 100 scale)",[6]; 125 g ai/ha,0
same,"Plant response rating, Foxtail, Giant","[6]; 500 g ai/ha, visual rating",80
same,"Foxtail, Giant plant response rating",[6]; [19],0
same,"Foxtail, Giant plant response rating",[6]; [22],0
same,Lambsquarters plant response rating (0 to 100 scale),[7]; 125 g ai/ha,0
same,"Plant response rating, Lambsquarters","[7]; 500 g ai/ha, visual rating",80
same,Lambsquarters plant response rating,[7]; [19],20
same,Lambsquarters plant response rating,[7]; [22],50
same,Morningglory plant response rating (0 to 100 scale),[8]; 125 g ai/ha,0
same,"Plant response rating, Morningglory","[8]; 500 g ai/ha, visual rating",0
same,Morningglory plant response rating,[8]; [19],20
same,Morningglory plant response rating,[8]; [22],30
same,Pigweed plant response rating (0 to 100 scale),[9]; 125 g ai/ha,0
same,"Plant response rating, Pigweed","[9]; 500 g ai/ha, visual rating",100
same,Pigweed plant response rating,[9]; [19],0
same,Pigweed plant response rating,[9]; [22],50
same,Rice plant response rating (0 to 100 scale),[10],0
same,"Plant response rating, Rice",[10],0
same,Velvetleaf plant response rating (0 to 100 scale),[11]; [21],0
same,Velvetleaf plant response rating,[11]; [19],0
same,Velvetleaf plant response rating,[11]; [22],10
same,Blackgrass plant response rating,[12]; 125 g ai/ha,0
same,Blackgrass plant response rating,[12]; 500 g ai/ha,10
same,Wheat plant response rating,[13]; [19],0
same,Wheat plant response rating,[13]; [22],20
same,"Oat, Wild plant response rating",[14]; [19],0
same,"Oat, Wild plant response rating",[14]; [22],0
same,Rice plant response rating,[15],0
same,"Sedge, Umbrella plant response rating",[16],60
same,Ducksalad plant response rating,[17],0
same,Barnyardgrass plant response rating,[18],0
